Experimental data as given in ChEMBL document CHEMBL1129057, “Structure-based alignment and comparative molecular field analysis of acetylcholinesterase inhibitors” (J Med Chem, 1996).

molecular target: T1, Acetylcholinesterase (Torpedo californica, UniProt P04058)
T1 sequence (P04058 whole entry): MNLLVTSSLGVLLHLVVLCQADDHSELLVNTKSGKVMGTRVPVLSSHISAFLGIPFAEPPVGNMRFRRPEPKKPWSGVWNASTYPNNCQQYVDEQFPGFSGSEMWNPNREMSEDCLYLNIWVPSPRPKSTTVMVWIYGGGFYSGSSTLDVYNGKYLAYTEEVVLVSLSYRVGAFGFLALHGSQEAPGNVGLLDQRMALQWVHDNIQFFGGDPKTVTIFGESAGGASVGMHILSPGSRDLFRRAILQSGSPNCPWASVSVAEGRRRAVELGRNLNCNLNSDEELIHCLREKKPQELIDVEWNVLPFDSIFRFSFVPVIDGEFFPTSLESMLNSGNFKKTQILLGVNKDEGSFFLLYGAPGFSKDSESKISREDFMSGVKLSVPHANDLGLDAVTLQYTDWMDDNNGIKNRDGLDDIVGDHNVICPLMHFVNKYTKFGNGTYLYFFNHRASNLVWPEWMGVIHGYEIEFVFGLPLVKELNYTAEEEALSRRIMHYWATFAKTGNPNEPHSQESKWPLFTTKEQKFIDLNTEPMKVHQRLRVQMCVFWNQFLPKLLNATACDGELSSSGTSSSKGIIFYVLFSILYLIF
Description: (§1) Inhibitory activity against Acetylcholinesterase

With `C[N+](C)(C)c1cccc([N+](=O)[O-])c1` the IC50 was 628 µM.

molecular target: Acetylcholinesterase (Homo sapiens, UniProt P22303)
Sequence (P22303 whole entry): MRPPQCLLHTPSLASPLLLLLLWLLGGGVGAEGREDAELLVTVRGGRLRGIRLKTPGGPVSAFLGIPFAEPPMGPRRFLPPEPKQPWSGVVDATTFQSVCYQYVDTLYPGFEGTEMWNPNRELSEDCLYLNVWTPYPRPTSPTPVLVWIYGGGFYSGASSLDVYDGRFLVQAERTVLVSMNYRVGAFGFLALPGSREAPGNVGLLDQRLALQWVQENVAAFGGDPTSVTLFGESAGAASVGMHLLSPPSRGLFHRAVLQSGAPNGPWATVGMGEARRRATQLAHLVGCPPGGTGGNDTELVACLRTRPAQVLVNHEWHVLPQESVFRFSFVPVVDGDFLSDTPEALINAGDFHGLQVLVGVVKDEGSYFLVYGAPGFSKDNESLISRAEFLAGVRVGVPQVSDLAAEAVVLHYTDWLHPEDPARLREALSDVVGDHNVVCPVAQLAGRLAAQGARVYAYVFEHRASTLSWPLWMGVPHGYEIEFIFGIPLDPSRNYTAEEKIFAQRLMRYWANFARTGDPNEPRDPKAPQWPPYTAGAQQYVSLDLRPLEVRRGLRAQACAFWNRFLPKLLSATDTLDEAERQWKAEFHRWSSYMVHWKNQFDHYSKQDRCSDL
Description: as §1

Point of comparison: `CC(C)NC(=O)Oc1ccc2c(c1)[C@]1(C)CCN(C)C1N2C` (some centres not stated), IC50 35 µM. Against it:
- CN1CC[C@@]2(C)c3cc(OC(=O)NCc4ccccc4)ccc3N(C)C12 (some centres not stated) — 76-fold lower, 0.46 µM
- CN1CC[C@@]2(C)c3cc(OC(=O)Nc4ccc(Cl)cc4)ccc3N(C)C12 (some centres not stated) — 19-fold lower, 1.8 µM
- CN1CC[C@@]2(C)c3cc(OC(=O)Nc4ccccc4)ccc3N(C)C12 (some centres not stated) — 100-fold lower, 0.35 µM
- CN(C)C(=O)Oc1ccc2c(c1)[C@]1(C)CCN(C)C1N2C (some centres not stated) — 36-fold lower, 0.97 µM
- CCN(CC)C(=O)Oc1ccc2c(c1)[C@]1(C)CCN(C)C1N2C (some centres not stated) — within 1.5-fold, 40 µM
- CNC(=O)Oc1ccc2c(c1)[C@]1(C)CC[N+](C)(C)C1N2C (some centres not stated) — 1000-fold lower, 0.034 µM
- CN(C(=O)NCc1ccccc1)C(=O)Oc1ccc2c(c1)[C@]1(C)CCN(C)C1N2C (some centres not stated) — 5.6-fold lower, 6.3 µM
- CCCCNC(=O)Oc1ccc2c(c1)[C@]1(C)CCN(C)C1N2C (some centres not stated) — 230-fold lower, 0.152 µM

molecular target: Acetylcholinesterase (Electrophorus electricus, UniProt O42275)
Sequence (O42275 whole entry): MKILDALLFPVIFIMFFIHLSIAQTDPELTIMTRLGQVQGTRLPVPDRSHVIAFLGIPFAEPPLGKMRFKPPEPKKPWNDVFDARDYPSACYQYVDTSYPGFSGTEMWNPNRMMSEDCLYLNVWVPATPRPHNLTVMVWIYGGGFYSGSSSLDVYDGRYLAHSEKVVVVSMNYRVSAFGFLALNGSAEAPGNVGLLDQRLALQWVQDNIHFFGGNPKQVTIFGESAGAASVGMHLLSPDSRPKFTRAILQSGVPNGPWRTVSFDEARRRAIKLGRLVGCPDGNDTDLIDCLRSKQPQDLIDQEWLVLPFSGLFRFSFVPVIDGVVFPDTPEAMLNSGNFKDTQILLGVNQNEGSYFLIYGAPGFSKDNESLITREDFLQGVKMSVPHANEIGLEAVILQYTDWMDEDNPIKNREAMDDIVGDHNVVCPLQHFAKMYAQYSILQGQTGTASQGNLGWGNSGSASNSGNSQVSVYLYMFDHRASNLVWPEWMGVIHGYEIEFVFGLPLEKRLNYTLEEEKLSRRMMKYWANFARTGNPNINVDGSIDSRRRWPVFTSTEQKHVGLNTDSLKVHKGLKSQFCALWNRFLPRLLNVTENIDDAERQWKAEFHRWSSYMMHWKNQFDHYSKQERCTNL
Description: as §1

Point of comparison: `CC(=O)Oc1cccc([N+](C)(C)C)c1`, IC50 3.01 µM. Against it:
- Cc1ccc(O)cc1[N+](C)(C)C — within 1.5-fold, 2.83 µM
- Cc1ccc([N+](C)(C)C)cc1O — within 1.5-fold, 3.11 µM
- COc1cccc([N+](C)(C)C)c1 — 200-fold higher, 597 µM
- CCC(=O)Oc1ccc(C)c([N+](C)(C)C)c1 — 23-fold higher, 69.1 µM
- CC(=O)Oc1cc([N+](C)(C)C)ccc1C — 4.6-fold lower, 0.659 µM
- CCC(=O)Oc1cccc([N+](C)(C)C)c1C — 250-fold higher, 754 µM
- COc1cccc([N+](C)(C)C)c1C — 79-fold higher, 239 µM
- CCC(=O)Oc1cc([N+](C)(C)C)ccc1C — within 1.5-fold, 3.77 µM
- COc1cc([N+](C)(C)C)ccc1C — 41-fold higher, 122 µM
- CCC(=O)Oc1cccc([N+](C)(C)C)c1 — 2-fold higher, 5.97 µM
- COc1ccc(C)c([N+](C)(C)C)c1 — 110-fold higher, 345 µM
- C[N+](C)(C)c1cccc(O)c1 — 3.1-fold lower, 0.973 µM
- Cc1c(O)cccc1[N+](C)(C)C — 47-fold higher, 141 µM
- CC(=O)Oc1cccc([N+](C)(C)C)c1C — 14-fold higher, 40.8 µM
- CC(=O)Oc1ccc(C)c([N+](C)(C)C)c1 — 1.8-fold higher, 5.34 µM

molecular target: T1, Acetylcholinesterase; set-up: species or system Tetronarce californica; remark: another data set of the same source
Description: as §1

Point of comparison: `C[N+](C)(C)CCCCBr`, IC50 597 µM. Against it:
- CCOCC[N+](C)(C)C — 1.9-fold higher, 1160 µM
- CC(=O)CCC[N+](C)(C)C — 7-fold lower, 84.8 µM
- C[N+](C)(C)CCCCCBr — within 1.5-fold, 534 µM
- CCCCCC[N+](C)(C)C — within 1.5-fold, 816 µM
- CCSCC[N+](C)(C)C — 2.5-fold higher, 1510 µM
- CCCC(=O)SCC[N+](C)(C)C — 4.7-fold lower, 126 µM
- C=CCCCN(C)C — 1.9-fold higher, 1130 µM
- C[N+](C)(C)c1cccc(N)c1 — 3.1-fold lower, 192 µM
- CC(=O)Nc1cccc([N+](C)(C)C)c1 — 1.7-fold higher, 1000 µM
- CCCC(=O)OCC[N+](C)(C)C — 2.6-fold lower, 229 µM
- C[N+](C)(C)CCS — within 1.5-fold, 440 µM
- C[N+]1(C)CCO[C@H](O)C1 — 2.9-fold higher, 1760 µM
- C[N+]1(C)CCO[C@@](O)(c2ccc([N+](=O)[O-])cc2)C1 — 8.6-fold higher, 5120 µM
- C=CCC[N+](C)(C)C — within 1.5-fold, 848 µM
- C[N+](C)(C)CCCBr — 6.8-fold lower, 87.9 µM
- C[N+]1(C)CCO[C@@](O)(c2ccc(N)cc2)C1 — within 1.5-fold, 691 µM
- C[N+](C)(C)CCCl [CHLORMEQUAT CHLORIDE] — 4-fold higher, 2390 µM
- CC(C)(C)[C@@]1(O)C[N+](C)(C)CCO1 — 6.2-fold higher, 3710 µM
- C[C@@]1(O)C[N+](C)(C)CCO1 — 2.9-fold higher, 1730 µM
- CC(=O)Nc1ccc([C@@]2(O)C[N+](C)(C)CCO2)cc1 — 3.5-fold higher, 2070 µM
- C[N+](C)(C)CCCCI — within 1.5-fold, 471 µM
- C=CC[N+](C)(C)C — 4.9-fold higher, 2920 µM
- C[N+]1(C)CCO[C@@](O)(c2ccc(Cl)cc2)C1 — 14-fold higher, 8130 µM
- C[N+]1(C)CCO[C@@](O)(C(F)(F)F)C1 — 6.4-fold higher, 3830 µM
- C[N+]1(C)CCO[C@@](O)(c2ccc(C#N)cc2)C1 — 19-fold higher, 11600 µM
